Measured values reported in patent publication US11479538B2, “Tetrazolone-substituted dihydropyridinone MGAT2 inhibitors” (BRISTOL-MYERS SQUIBB COMPANY, priority 2014, dated 2022).
pIC50: −log10 of the molar value.

Target: human MGAT-2 (Homo sapiens (Human), UniProt Q3SYC2)
Experiment: MGAT LCMS Assay
Assay type: biochemical
Settings: human recombinant MGAT-2 membranes expressed in Sf9 cells; LC/MS readout of diolein; read-out: h-MGAT LCMS IC50
Protocol: The MGAT enzyme reactions were performed in Corning FALCON® 96-well polypropylene plates, in a total volume of 60 μL of 50 mM potassium phosphate buffer pH 7.4, containing a final concentration of 100 μM 2-oleoylglycerol, 15 μM oleoyl-coenzyme A and […] human or mouse MGAT-2 or […] rat recombinant MGAT-2 membranes expressed in Sf9 cells. Assay plates were run through a fully automated robotics system and shaken for 5 seconds every minute for a total 10 minutes. The reactions were then quenched with 120 μL of ice cold methanol containing 1 μg/mL 1,2-distearoyl-rac-glycerol as the internal standard. Plates were shaken for 2 minutes and spun down to remove protein precipitation. After the spin, samples were transferred to LC/MS compatible PCR plates. For LC/MS analysis, a ThermoFisher Surveyor pump, utilizing a Waters SYMMETRY® C8, 50×2.1 mm column, was used for the chromatography of enzyme products. The buffer system consists of 0.1% formic acid in water with a mobile phase consisting 0.1% formic acid in methanol. The shallow gradient is 90-100% mobile phase in 0.2 min with a total run time of 2.3 min. […]
The exemplified Examples disclosed below were tested in the MGAT2 in vitro assays described above and were found having MGAT2 inhibitory activity. Table 1 below lists human MGAT2 IC50 values measured for the following examples.

Chain of human MGAT-2 (Q3SYC2 whole entry): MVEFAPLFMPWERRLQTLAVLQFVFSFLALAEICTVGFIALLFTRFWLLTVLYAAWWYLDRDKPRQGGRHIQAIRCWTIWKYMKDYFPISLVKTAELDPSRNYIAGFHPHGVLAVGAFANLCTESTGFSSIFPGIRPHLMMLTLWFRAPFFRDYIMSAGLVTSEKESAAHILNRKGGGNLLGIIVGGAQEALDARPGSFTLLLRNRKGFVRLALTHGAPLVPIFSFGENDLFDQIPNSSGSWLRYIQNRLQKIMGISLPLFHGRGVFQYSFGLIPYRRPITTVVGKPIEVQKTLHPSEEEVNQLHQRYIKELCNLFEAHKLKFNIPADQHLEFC

## O=C1N[C@@](c2ccc(OCCCC(F)(F)F)cc2F)(C(F)(F)F)CC(c2ncc(C3CC3)s2)=C1n1nn[nH]c1=O [Example 22, (S)-4-(5-cyclopropylthiazol-2-yl)-6-(2-fluoro-4-(4,4,4-trifluorobutoxy)phenyl)-3-(5-oxo-4,5-dihydro-1H-tetrazol-1-yl)-6-(trifluoromethyl)-5,6-dihydropyridin-2(1H)-one]
  pIC50: 8.70
